Tests used:
[1] = test system: ryegrass, Italian (Italian ryegrass, Lolium multiflorum); assay: Test A preemergence, visual injury rating 0-100; format: in vivo
kochia (Kochia scoparia) [2] = assay: Test A preemergence, visual injury rating 0-100; format: in vivo
[3] = test system: ragweed (common ragweed, Ambrosia elatior); assay: Test A preemergence, visual injury rating 0-100; format: in vivo
[4] = test system: foxtail, giant (giant foxtail, Setaria faberii); assay: Test A preemergence, visual injury rating 0-100; format: in vivo
[5] = test system: pigweed (Amaranthus retroflexus); assay: Test A preemergence, visual injury rating 0-100; format: in vivo
[6] = test system: ryegrass, Italian (Italian ryegrass, Lolium multiflorum); assay: Test A postemergence, visual injury rating 0-100; format: in vivo; details: 0 to 100 scale
kochia (Kochia scoparia) [7] = assay: Test A postemergence, visual injury rating 0-100; format: in vivo; details: 0 to 100 scale
[8] = test system: barnyardgrass (Echinochloa crus-galli); assay: Test A postemergence, visual injury rating 0-100; format: in vivo; details: 0 to 100 scale
corn (Zea mays) = assay: Test A postemergence, visual injury rating 0-100; format: in vivo; details: 0 to 100 scale
[9] = test system: galium (catchweed bedstraw, Galium aparine); assay: Test A postemergence, visual injury rating 0-100; format: in vivo; details: 0 to 100 scale
[10] = test system: ragweed (common ragweed, Ambrosia elatior); assay: Test A postemergence, visual injury rating 0-100; format: in vivo; details: 0 to 100 scale
[11] = test system: wheat (Triticum aestivum); assay: Test A postemergence, visual injury rating 0-100; format: in vivo; details: 0 to 100 scale
[12] = test system: blackgrass (Alopecurus myosuroides); assay: Test A postemergence, visual injury rating 0-100; format: in vivo; details: 0 to 100 scale
[13] = test system: foxtail, giant (giant foxtail, Setaria faberii); assay: Test A postemergence, visual injury rating 0-100; format: in vivo; details: 0 to 100 scale
[14] = test system: pigweed (Amaranthus retroflexus); assay: Test A postemergence, visual injury rating 0-100; format: in vivo; details: 0 to 100 scale
[15] = test system: ducksalad (Heteranthera limosa); assay: Test B flooded paddy test, visual rating 0-100; details: Flood, 250 g ai/ha, applied to paddy water, rated after 13 to 15 days
[16] = test system: barnyardgrass (Echinochloa crus-galli); assay: Test B flooded paddy test, visual rating 0-100; details: Flood, 250 g ai/ha, applied to paddy water, rated after 13 to 15 days
rice (Oryza sativa) = assay: Test B flooded paddy test, visual rating 0-100 (0 no effect, 100 complete control); details: Flood, 250 g ai/ha, applied to paddy water, rated after 13 to 15 days
[17] = test system: barnyardgrass (Echinochloa crus-galli); assay: Test A preemergence, visual injury rating 0-100 (0 no effect, 100 complete control); format: in vivo

Row | SMILES | Ryegrass, Italian plant response rating (0 to 100 scale) ([1]; 125 g ai/ha) | Ryegrass, Italian plant response rating (0 to 100 scale) ([1]; 500 g ai/ha) | Kochia plant response rating (0 to 100 scale) (kochia (Kochia scoparia) [2]; 125 g ai/ha) | Kochia plant response rating (0 to 100 scale) (kochia (Kochia scoparia) [2]; 500 g ai/ha) | Ragweed plant response rating (0 to 100 scale) ([3]; 125 g ai/ha) | Ragweed plant response rating (0 to 100 scale) ([3]; 500 g ai/ha) | Foxtail, Giant plant response rating (0 to 100 scale) ([4]; 125 g ai/ha) | Foxtail, Giant plant response rating (0 to 100 scale) ([4]; 500 g ai/ha) | Pigweed plant response rating (0 to 100 scale) ([5]; 125 g ai/ha) | Pigweed plant response rating (0 to 100 scale) ([5]; 500 g ai/ha) | Ryegrass, Italian plant response rating ([6]; 125 g ai/ha) | Ryegrass, Italian plant response rating ([6]; 500 g ai/ha) | Kochia plant response rating (kochia (Kochia scoparia) [7]; 125 g ai/ha) | Kochia plant response rating (kochia (Kochia scoparia) [7]; 500 g ai/ha) | Barnyardgrass plant response rating ([8]; 125 g ai/ha) | Barnyardgrass plant response rating ([8]; 500 g ai/ha) | Corn plant response rating (corn (Zea mays); 125 g ai/ha) | Corn plant response rating (corn (Zea mays); 500 g ai/ha) | Galium plant response rating ([9]; 125 g ai/ha) | Galium plant response rating ([9]; 500 g ai/ha) | further results
1 | CC1=[N+]([O-])C(C(=O)Nc2cccc(F)c2F)C(c2cc(C)ccc2C)C1 (racemic) [Compound 79] | 30 | 50 | 0 | 20 | 0 | 0 | 80 | 90 | 0 | 0 | 0 | 50 | 0 | 0 | 70 | 80 | 20 | 70 | 20 | 30 | Ragweed plant response rating ([10]; 125 g ai/ha): 30; Ragweed plant response rating ([10]; 500 g ai/ha): 30; Wheat plant response rating ([11]; 125 g ai/ha): 20; Wheat plant response rating ([11]; 500 g ai/ha): 70; Blackgrass plant response rating ([12]; 125 g ai/ha): 20; Blackgrass plant response rating ([12]; 500 g ai/ha): 70; Foxtail, Giant plant response rating ([13]; 125 g ai/ha): 70; Foxtail, Giant plant response rating ([13]; 500 g ai/ha): 90; Pigweed plant response rating ([14]; 125 g ai/ha): 0; Pigweed plant response rating ([14]; 500 g ai/ha): 0; Ducksalad plant response rating (0 to 100 scale) [15]: 100; Barnyardgrass plant response rating (0 to 100 scale) [16]: 60; Rice plant response rating (0 to 100 scale) (rice (Oryza sativa)): 0; Barnyardgrass plant response rating (0 to 100 scale) ([17]; 125 g ai/ha): 90; Barnyardgrass plant response rating (0 to 100 scale) ([17]; 500 g ai/ha): 90
2 | CC1=[N+]([O-])C(C(=O)Nc2cccc(F)c2F)C(c2cc(F)ccc2C)C1 (racemic) [Compound 81] | 0 | 10 | 0 | 50 | 0 | 0 | 60 | 90 | 0 | 20 | 0 | 20 | 0 | 0 | 80 | 80 | 20 | 20 | 0 | 30 | Ragweed plant response rating ([10]; 125 g ai/ha): 0; Ragweed plant response rating ([10]; 500 g ai/ha): 0; Wheat plant response rating ([11]; 125 g ai/ha): 0; Wheat plant response rating ([11]; 500 g ai/ha): 30; Blackgrass plant response rating ([12]; 125 g ai/ha): 0; Blackgrass plant response rating ([12]; 500 g ai/ha): 50; Foxtail, Giant plant response rating ([13]; 125 g ai/ha): 60; Foxtail, Giant plant response rating ([13]; 500 g ai/ha): 80; Pigweed plant response rating ([14]; 125 g ai/ha): 0; Pigweed plant response rating ([14]; 500 g ai/ha): 0; Ducksalad plant response rating (0 to 100 scale) [15]: 100; Barnyardgrass plant response rating (0 to 100 scale) [16]: 25; Rice plant response rating (0 to 100 scale) (rice (Oryza sativa)): 0; Barnyardgrass plant response rating (0 to 100 scale) ([17]; 125 g ai/ha): 90; Barnyardgrass plant response rating (0 to 100 scale) ([17]; 500 g ai/ha): 90

Source: patent US11498899B2, “Nitrone herbicides” (FMC Corporation, priority 2016, dated 2022)
